In patent publication US20200022964A1, “COMPOSITIONS AND METHODS FOR TREATMENT OF INFLAMMATORY AUTOIMMUNE DISEASES” (New York University, priority 2018, published 2020):

What was measured:
TNF-α-induced genes = test: RNA-seq of TNF-α-treated BMDMs; type: cell-based, mice; conditions: TNF-α 10 ng/mL; FFD 10 μM, TFD 1 μM; 24 hours
Experimental: (§1) Primary bone marrow derived macrophages (BMDMs) extraction. BMDMs were isolated from C57BL/6 and TNF-tg mice. After mice were sacrificed by cervical dislocation, the tibia and femur were isolated and both ends of the bones were cut to open the medullary cavity. Bone marrow cells were collected by centrifuge at 13000 g for 90 seconds and seeded in 6-well plates. Prior to their use in experiments, M-CSF (10 ng/ml, 576406, Biolegend) was added for 6 days to the BMDM culture medium.
RNAseq and Transcription factors enrichment analysis. […] Total RNA was extracted by RNeasy Mini Kit (74106, Qiagen), and gene expression profiling analyzed by RNA-seq was performed by the NYU Genome Technology Center for RNA sequencing (Illumina HiSeq4000 Sequencing, HiSeq 4000 Single Read 50 Cycle Lane).

TNF-α [1] = test: qRT-PCR of TNF-α-induced IL-1β, IL-6 and Nos-2 mRNA in BMDMs; type: cell-based, mice; conditions: TNF-α 10 ng/mL; FFD 1, 10 μM; TFD 0.1, 1 μM; 24 hours
Experimental: as §1
(§2) qRT-PCR. Total RNA was extracted by RNeasy plus mini kit (74106, QIAGEN) and cDNA was synthesized using SuperScript® Reverse Transcriptase (M314C, promega Corporation). SYBR® Green PCR Master Mix (4309155, Applied Biosystems) was used to perform quantitative real-time PCR (qRT-PCR) and the reaction was performed on a StepOnePlus™ real-time PCR Systems (Applied Biosystems). The mRNA expression level of target genes was calculated by ΔΔCT and fold changes of mRNA levels were normalized to GAPDH.

DBA/1J mice = test: Collagen induced arthritis model in DBA/1J mice; conditions: for loss of cartilage (Safranin O staining of ankle) / serum levels of IL-1β and IL-6 / arthritis clinical scores and incidence / onset of disease: prevention; for arthritis clinical scores and incidence / onset of disease: oral daily from 18 days after immunization, FFD 10 mg/kg, TFD 50 mg/kg; for disease scores: therapeutic, treatment initiated at clinical score of ˜5 points, FFD 0.4, 2, 10 mg/kg, TFD 2, 10, 50 mg/kg oral, 24 days
TNF-α [2] = test: TNF-α induced cytokine expression and release in RAW264.7 cells (incl. H1R1 siRNA and cPLA2 knockout); type: cell-based; conditions: FFD 10 μM; for effect of suppression of H1R1 on the inhibition of TNF-induced cytokine release: RAW264.7 cells with H1R1 siRNAs
Experimental: as §2
Knock down of H1R1 by siRNA. BMDMs were transfected with siH1R1, or scrambled control siRNA (scRNAi) using lipofectamine 2000 (11668-019, Invitrogen) according to manufacturer's specifications. After 24 hours, supernatants and lysate were collected to detect cytokine secretion and protein expression, respectively.
Knock out of cPAL2 by CRISPR-Cas9. Knockout cells were generated in accordance with a previously published protocol. gRNA was inserted into the lentiCRISPR v2 vector. Packaging the inserted vector into lentivirus was completed by co-transfecting the lentiCRISPR v2, VSVG and ΔR6.7 in 293T cells. After packaging, we transfected the virus into RAW264.7 cells over 8 hours. Puromycin (2 μg/ml) was used to select the stably transfected RAW264.7 cells

cPLA2 = target: T1, cPLA2 (Mus musculus, UniProt P47713); test: CETSA assay in RAW264.7 cells; type: binding; set-up: endogenous in cells; host or cells: RAW264.7; conditions: for EC50: CETSA at 49° C., 0.001 μM to 100 μM, read-out: EC50 of prevention of cPLA2 denaturation (isothermal dose response)
T1 sequence (P47713 1-748): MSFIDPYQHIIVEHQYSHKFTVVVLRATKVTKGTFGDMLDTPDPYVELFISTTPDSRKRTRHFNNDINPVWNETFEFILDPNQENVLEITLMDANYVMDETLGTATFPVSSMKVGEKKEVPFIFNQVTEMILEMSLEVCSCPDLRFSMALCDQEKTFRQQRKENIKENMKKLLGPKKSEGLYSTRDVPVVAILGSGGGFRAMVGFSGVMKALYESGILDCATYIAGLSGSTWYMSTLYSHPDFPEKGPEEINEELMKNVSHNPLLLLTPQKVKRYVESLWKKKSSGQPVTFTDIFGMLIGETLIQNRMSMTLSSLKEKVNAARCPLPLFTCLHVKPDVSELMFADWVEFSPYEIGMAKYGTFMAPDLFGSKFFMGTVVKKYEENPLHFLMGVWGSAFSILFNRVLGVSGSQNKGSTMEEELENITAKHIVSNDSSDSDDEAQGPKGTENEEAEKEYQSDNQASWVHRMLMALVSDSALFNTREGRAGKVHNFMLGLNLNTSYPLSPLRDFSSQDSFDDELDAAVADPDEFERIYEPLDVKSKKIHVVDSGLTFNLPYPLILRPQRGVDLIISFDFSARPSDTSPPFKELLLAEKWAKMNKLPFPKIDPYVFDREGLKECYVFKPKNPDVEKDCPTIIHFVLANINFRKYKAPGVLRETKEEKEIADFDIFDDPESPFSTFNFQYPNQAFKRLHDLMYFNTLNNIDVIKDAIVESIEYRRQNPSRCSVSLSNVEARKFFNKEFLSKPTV
Experimental: CETSA assay. RAW264.7 cells were treated with FFD (10 μM)/TFD (1 μM) for 1 hour in a 37° C. incubator with 5% CO2. Cells were harvested and divided equally into different tubes, after which the cells were heated to different temperatures for 3 minutes. After lysis via 3 repeated freeze-thaw cycles, samples underwent centrifugation at 20000 g and supernatants were collected for analysis. For the isothermal dose response, a series of ten-fold change concentrations (ranged from 0.001 μM to 100 μM) of FFD/TFD were used to treat cells and no variation in temperature was introduced. The remaining steps are the same as previously reported^5.

TNF-α/NF-κB pathway = test: TNF-tg:NF-κB-Luc double mutant mice, luciferase imaging by IVIS; type: in vivo; conditions: for in vivo inhibition of the TNF-α/NF-κB pathway: FFD 2 or 10 mg/kg, TFD 10 or 50 mg/kg orally for 7 days; for TNF-tg:NF-κB activated luciferase in vivo: third round screen, treatment for 7 days
From the text: In vitro and in vivo screen of FDA-approved drug library. NF-κB-bla THP-1 cell line in which NF-κB beta-lactamase reporter gene was stably integrated, RAW 264.7 macrophages in which NF-κB luciferase reporter gene was transiently transfected, and TNF-tg:NF-κB-Luc double mutant reporter mice were employed to screen the drug library.
Screening and confirming the drugs' anti-TNF activity in vivo. TNF-tg mice and NF-κB luc mice were purchased from Jackson Laboratory and housed in Skirball Animal Facility of New York University Langone Medical Center. All animal experiments have been approved by Institutional Animal Care and Use Committee (IACUC) of New York University School of Medicine. We generated the TNF-tg/NF-κB-Luc mice by mating TNF-tg mice with NF-κB-Luc mice. After genotypes were confirmed by genotyping and bioluminescence via IVIS, the TNF-tg/NF-κB-Luc mice were orally treated daily with one of the 8 drugs selected in screen two for 7 days. The luciferase activity was detected by IVIS 15 minutes after the injection of D-Luciferin (LUCK-1G, Gold biotechnology).

Structure (SMILES)	expression of TNF-α-induced genes (RNA-seq) (TNF-α-induced genes)	TNF-α-induced mRNA expressions of IL-1β, IL-6 and Nos-2 (TNF-α [1])	loss of cartilage (Safranin O staining of ankle) (DBA/1J mice)	serum levels of IL-1β and IL-6 (DBA/1J mice)	arthritis clinical scores and incidence (DBA/1J mice)	onset of disease (DBA/1J mice)	disease scores (DBA/1J mice)	effect of suppression of H1R1 on the inhibition of TNF-induced cytokine release (TNF-α [2])	inhibition of TNF-α activity (IL-1β, IL-6 release) in cPLA2 knockout cells (TNF-α [2]; cPLA2 KO RAW264.7 cells)	EC50 (cPLA2) [nM]	in vivo inhibition of the TNF-α/NF-κB pathway (TNF-α/NF-κB pathway)	TNF-tg:NF-κB activated luciferase in vivo (TNF-α/NF-κB pathway)	Tm of cPLA2 (CETSA melt curve) (cPLA2; RAW264.7 cells, FFD 10 μM, TFD 1 μM, 1 hour, control DMSO 46.09) [°C]
CC(C)(C(=O)O)c1ccc(C(O)CCCN2CCC(C(O)(c3ccccc3)c3ccccc3)CC2)cc1 (stereo not drawn) [fexofenadine]	clearly downregulated	dose-dependently inhibited	prevented the loss of cartilage	significantly reduced	significantly decrease	delay the onset	dose-dependently ameliorated	did not affect	entirely or almost entirely lost	102	dose-dependent inhibition	effectively inhibit	–
CC(C)(C)c1ccc(C(O)CCCN2CCC(C(O)(c3ccccc3)c3ccccc3)CC2)cc1 (stereo not drawn) [terfenadine]	clearly downregulated	dose-dependently inhibited	prevented the loss of cartilage	significantly reduced	significantly decrease	delay the onset	dose-dependently ameliorated	did not affect	–	1.45	dose-dependent inhibition	effectively inhibit	49.08
